Key:
Assay type in all cases: in vivo
[1] = tested on: Pigweed, Palmer (palmer amaranth, palmer pigweed, Amaranthus palmeri); test: Test A1 postemergence, Pigweed, Palmer; settings: for Plant response rating, Pigweed, Palmer: Postemergence; for Pigweed, Palmer plant response rating: postemergence
Method in brief: (§1)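 Seeds were first planted into a blend of loam soil and sand and given a preemergence directed soil spray. In parallel, pots of the same soil were sown for postemergence application once plants reached 2 to 10 cm and the one- to two-leaf stage. Both used surfactant-containing non-phytotoxic solvent formulations.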

soybean (Glycine max) = test: Test A1 postemergence, soybean; settings: for Plant response rating, Soybean: Postemergence; for Soybean plant response rating: postemergence
Method in brief: (§2)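 Plants grown in pots of loam/sand mix; preemergence = soil-directed spray on seeded pots, postemergence = spray at 1–2 leaves, height 2–10 cm; test chemicals formulated in non-phytotoxic solvent with surfactant.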

[2] = tested on: Pigweed, Palmer (palmer amaranth, palmer pigweed, Amaranthus palmeri); test: Test A1 preemergence, Pigweed, Palmer
Method in brief: as §1

[3] = tested on: blackgrass (Alopecurus myosuroides); test: Test A1 postemergence, blackgrass; settings: 0 to 100 scale (0 no effect, 100 complete control); for Plant response rating, Blackgrass: Postemergence; for Blackgrass plant response rating: postemergence
Method in brief: as §2

[4] = 31 g ai/ha, 0 to 100 scale (0 no effect, 100 complete control), 10 days
[5] = 31 g ai/ha, 0 to 100 scale (0 no effect, 100 complete control)
[6] = 125 g ai/ha, 0 to 100 scale, 0 no effect, 100 complete control
[7] = 125 g ai/ha, 0 to 100 scale (0 no effect, 100 complete control), 10 days
[8] = 125 g ai/ha, 0 to 100 scale (0 no effect, 100 complete control)

SMILES	Plant response rating, Pigweed, Palmer [1, 4]	Plant response rating, Pigweed, Palmer ([1]; 125 g ai/ha, 0 to 100 scale)	Plant response rating, Soybean (soybean (Glycine max); [4])	Plant response rating, Soybean (soybean (Glycine max); 125 g ai/ha, 0 to 100 scale)	Plant response rating, Pigweed, Palmer [2, 5]	Plant response rating, Pigweed, Palmer [2, 6]	Plant response rating, Blackgrass ([3]; 31 g ai/ha, 10 days)	Plant response rating, Blackgrass ([3]; 125 g ai/ha)	Pigweed, Palmer plant response rating [1, 5]	Plant response rating, Pigweed, Palmer [1, 7]	Soybean plant response rating (soybean (Glycine max); [5])	Plant response rating, Soybean (soybean (Glycine max); [7])	Blackgrass plant response rating ([3]; 31 g ai/ha)	Plant response rating, Blackgrass ([3]; 125 g ai/ha, 10 days)	Plant response rating, Pigweed, Palmer ([1]; 500 g ai/ha, 0 to 100 scale)	Plant response rating, Soybean (soybean (Glycine max); 500 g ai/ha, 0 to 100 scale)	Plant response rating, Pigweed, Palmer ([2]; 500 g ai/ha, 0 to 100 scale (0 no effect, 100 complete control))	Plant response rating, Blackgrass ([3]; 500 g ai/ha)	Plant response rating, Pigweed, Palmer [2, 8]
Cc1c(NS(=O)(=O)C(F)(F)F)cc(C(=O)N2CCSCC2)c(C)c1C [Compound 283]	10	50	40	60	10	50	0	10	–	–	–	–	–	–	–	–	–	–	–
Cc1cc(C)c(N2CCC3(CCC(C(F)(F)F)CC3)C2=O)cc1NS(=O)(=O)C(F)(F)F (stereo not drawn) [Compound 400]	–	–	–	–	50	100	–	–	20	70	50	60	0	30	–	–	–	–	–
Cc1c(C2=NOC3(CCCC3)C2)cc(N(COC(=O)C(C)(C)C)S(=O)(=O)C(F)(F)F)c(C)c1C [Compound 382]	–	–	–	–	0	20	–	–	0	20	40	50	0	0	–	–	–	–	–
Cc1cc(C)c(N2CCC3(CCC(C)CC3)C2=O)cc1NS(=O)(=O)C(F)(F)F (stereo not drawn) [Compound 402]	–	–	–	–	60	80	–	–	20	70	60	80	0	0	–	–	–	–	–
Cc1cc(C)c(N(COC(=O)C(C)(C)C)S(=O)(=O)C(F)(F)F)cc1N1CCC2(CCC(F)(F)CC2)C1=O [Compound 397]	–	–	–	–	–	90	–	–	–	80	–	50	–	40	100	60	100	90	–
Cc1cc(C)c(C2=NOC(C(C)C)C2)cc1NS(=O)(=O)C(F)(F)F (stereo not drawn) [Compound 381]	–	–	–	–	30	90	–	–	0	10	50	60	0	70	–	–	–	–	–
CCOc1cccc2c1C(=O)N(c1cc(N(COC(=O)C(C)(C)C)S(=O)(=O)Cl)c(C)cc1C)C2 [Compound 414]	–	–	–	–	–	–	–	–	0	10	20	30	0	30	–	–	–	–	40
COc1cccc2c1C(=O)N(c1cc(N(COC(=O)C(C)(C)C)S(=O)(=O)Cl)c(C)cc1C)C2 [Compound 413]	–	–	–	–	–	–	–	–	20	30	80	80	0	0	–	–	–	–	90
Cc1ccc(C2=NOC3CCCC23)cc1NS(=O)(=O)C(F)(F)F (stereo not drawn) [Compound 377]	–	0	–	30	0	0	0	0	0	–	0	–	–	–	–	–	–	–	–
C#CCN(C)C(=O)c1cc(NS(=O)(=O)C(F)(F)F)c(C)c(C)c1C [Compound 368]	–	40	–	90	100	100	0	10	20	–	70	–	–	–	–	–	–	–	–
CCOC(=O)N(c1cc(C(=O)N2CCSCC2)c(C)c(C)c1C)S(=O)(=O)C(F)(F)F [Compound 286]	0	30	50	60	50	70	0	40	–	–	–	–	–	–	–	–	–	–	–
Cc1cc(Cl)c(NS(=O)(=O)C(F)(F)F)cc1N1CC2(CCCCC2)OC1=O [Compound 394]	–	–	–	–	20	90	–	–	50	50	10	60	–	–	–	–	–	–	–
Cc1cc(C)c(N(COC(=O)C(C)(C)C)S(=O)(=O)C(F)(F)F)cc1N1CCC2(CCC(C)CC2)C1=O (stereo not drawn) [Compound 401]	–	–	–	–	0	20	–	–	0	30	60	70	0	30	–	–	–	–	–
Cc1cc(C)c(N2Cc3cccc(Br)c3C2=O)cc1NS(=O)(=O)Cl [Compound 415]	–	–	–	–	–	–	–	–	0	20	10	30	0	40	–	–	–	–	60
Cc1c(NS(=O)(=O)C(F)(F)F)cc(C2=NOC3(CCCC3)C2)c(C)c1C [Compound 380]	–	–	–	–	30	40	–	–	0	10	50	60	20	20	–	–	–	–	–
Cc1cc(C)c(N(S(=O)(=O)C(F)(F)F)S(=O)(=O)C(F)(F)F)cc1N1CCC2(CCC(C(F)(F)F)CC2)C1=O (stereo not drawn) [Compound 399]	–	–	–	–	30	60	–	–	30	70	60	100	40	90	–	–	–	–	–
C#CCN(C)C(=O)c1cc(N(COC(=O)C(C)(C)C)S(=O)(=O)C(F)(F)F)c(C)c(C)c1C [Compound 371]	–	30	–	90	10	80	0	10	0	–	60	–	–	–	–	–	–	–	–
CCC1CC(c2cc(N(COC(=O)C(C)(C)C)S(=O)(=O)C(F)(F)F)c(C)cc2C)=NO1 (stereo not drawn) [Compound 376]	–	20	–	100	0	40	0	50	0	–	20	–	–	–	–	–	–	–	–
CCOC(=O)N(c1cc(C2=NOC3CCCC23)c(CC)cc1C)S(=O)(=O)C(F)(F)F (stereo not drawn) [Compound 379]	–	10	–	20	–	–	0	30	0	–	0	–	–	–	–	–	–	–	–
Cc1c(C(=O)N2C[C@@H](C)O[C@H](C)C2)cc(N(COC(=O)C(C)(C)C)S(=O)(=O)C(F)(F)F)c(C)c1C (relative stereo) [Compound 373]	–	10	–	70	20	40	0	10	0	–	50	–	–	–	–	–	–	–	–
Cc1cc(Cl)c(NS(=O)(=O)C(F)(F)F)cc1N1CCC2(CCCCC2)C1=O [Compound 393]	–	–	–	–	30	60	–	–	0	80	50	60	–	–	–	–	–	–	–

From patent US20230278972A1, “SUBSTITUTED HALOALKYL SULFONANILIDE HERBICIDES” (FMC Corporation, priority 2020, published 2023)
